From patent US20070049564A1 (Wyeth, priority 2005, published 2007)
Values after ≈ are worked out from the molar mass of the structure shown. Read-outs that look alike come from different tables or passages of the source.

Experiments:
E. coli GC 2236 = experiment: MIC, broth microdilution; details: Escherichia coli
E. coli GC 2231 = experiment: MIC, broth microdilution; details: Escherichia coli
E. coli GC 2232 = experiment: MIC, broth microdilution; details: Escherichia coli
E. coli GC 2272 = experiment: MIC, broth microdilution; details: Escherichia coli
Protocol: (§1) Antimicrobial susceptibility testing. The in vitro activities of the antibiotics are determined by the broth microdilution method as recommended by the National Committee for Clinical Laboratory Standards (NCCLS) (1). Mueller-Hinton II broth (MHBII)(BBL Cockeysville, Md.) is the medium employed in the testing procedures. Microtiter plates containing serial dilutions of each antimicrobial agent are inoculated with each organism to yield the appropriate density (10^5 CFU/ml) in a 100 μl final volume. The plates are incubated for 18-22 hours at 35° C. in ambient air.
Representative compounds were first incubated in mouse serum for an hour prior to the in vitro testing against a panel of selected gram-positive and gram-negative bacteria strains. All compounds were also pre-incubated in water for an hour prior to testing as control. Representative compounds of Formula I were incubated in human serum prior to MIC determination.

P. aeruginosa GC 2214 = experiment: MIC, broth microdilution; details: Pseudomonas aeruginosa
S. aureus GC 1131 = experiment: MIC, broth microdilution; details: Staphylococcus aureus
Protocol: as §1
Representative compounds were first incubated in mouse serum for an hour prior to the in vitro testing against a panel of selected gram-positive and gram-negative bacteria strains. All compounds were also pre-incubated in water for an hour prior to testing as control.

S. aureus GC 4536 = experiment: MIC, broth microdilution; details: Staphylococcus aureus
S. aureus GC 2216 = experiment: MIC, broth microdilution; details: Staphylococcus aureus
S. epidermidis GC 4935 = experiment: MIC, broth microdilution; details: Staphylococcus epidermidis
E. faecalis GC 4555 = experiment: MIC, broth microdilution; details: Enterococcus faecalis
E. faecalis GC 2265 = experiment: MIC, broth microdilution; details: Enterococcus faecalis
E. faecalis GC 2267 = experiment: MIC, broth microdilution; details: Enterococcus faecalis
E. faecalis GC 2242 = experiment: MIC, broth microdilution; details: Enterococcus faecalis
E. faecium GC 2243 = experiment: MIC, broth microdilution; details: Enterococcus faecium
S. pneumoniae* GC 4465 = experiment: MIC, broth microdilution; details: Streptococcus pneumoniae
S. pneumoniae+ GC 4465 = experiment: MIC, broth microdilution; details: Streptococcus pneumoniae
c. albicans GC 3066 = experiment: MIC, broth microdilution
E. coli = experiment: Range of MIC for E. coli strains; details: Escherichia coli
Staph. = experiment: Range of MIC for Staph. strains, including MRSA; details: Staphylococcus aureus
Staph. aureus Smith = experiment: In vivo activity (oral, iv; ED50) against Staph. aureus Smith in mice
Protocol: Representative examples of compounds of Formula I were tested for the oral efficacy using S. aureus Smith in mice.

[1] = read-out: MINIMAL INHIBITORY CONCENTRATION MIC, pre-incubated in Human Serum
[2] = read-out: MINIMAL INHIBITORY CONCENTRATION MIC, pre-incubated in Mouse Serum
[3] = read-out: MINIMAL INHIBITORY CONCENTRATION MIC, pre-incubated in Water

For `CC(C)C(=O)OCOC(=O)N(CC(=O)Nc1cc(N(C)C)c2c(c1O)C(=O)C1=C(O)[C@]3(O)C(=O)C(C(N)=O)=C(O)[C@@H](N(C)C)[C@@H]3C[C@@H]1C2)C(C)(C)C` [Example 45, ({[(2-{[(5aR,6aS,7S,10aS)-9-(aminocarbonyl)-4,7-bis(dimethylamino)-1,8,10a,11-tetrahydroxy-10,12-dioxo-5,5a,6,6a,7,10,10a,12-octahydrotetracen-2-yl]amino}-2-oxoethyl)(tert-butyl)amino]carbonyl}oxy)methyl 2-methylpropanoate], the MIC (E. coli GC 2236; GC2236, read-out: MINIMAL INHIBITORY CONCENTRATION MIC, pre-incubated in Human Serum) was 4 mg/L (≈ 5.48 µM), the MIC (E. coli GC 2236; GC2236, read-out: MINIMAL INHIBITORY CONCENTRATION MIC, pre-incubated in Mouse Serum) was 1 mg/L (≈ 1.37 µM) and the MIC (E. coli GC 2236; GC2236, read-out: MINIMAL INHIBITORY CONCENTRATION MIC, pre-incubated in Water) was 16 mg/L (≈ 21.9 µM). The MIC (E. coli GC 2231; GC2231, read-out: MINIMAL INHIBITORY CONCENTRATION MIC, pre-incubated in Human Serum) was 4 mg/L (≈ 5.48 µM), the MIC (E. coli GC 2231; GC2231, read-out: MINIMAL INHIBITORY CONCENTRATION MIC, pre-incubated in Mouse Serum) was 1 mg/L (≈ 1.37 µM) and the MIC (E. coli GC 2231; GC2231, read-out: MINIMAL INHIBITORY CONCENTRATION MIC, pre-incubated in Water) was 32 mg/L (≈ 43.8 µM). The MIC (E. coli GC 2232; GC2232, read-out: MINIMAL INHIBITORY CONCENTRATION MIC, pre-incubated in Human Serum) was 4 mg/L (≈ 5.48 µM), the MIC (E. coli GC 2232; GC2232, read-out: MINIMAL INHIBITORY CONCENTRATION MIC, pre-incubated in Mouse Serum) was 1 mg/L (≈ 1.37 µM) and the MIC (E. coli GC 2232; GC2232, read-out: MINIMAL INHIBITORY CONCENTRATION MIC, pre-incubated in Water) was 16 mg/L (≈ 21.9 µM). For the same compound, the MIC (E. coli GC 2272; GC2272, read-out: MINIMAL INHIBITORY CONCENTRATION MIC, pre-incubated in Human Serum) was 8 mg/L (≈ 11 µM), the MIC (E. coli GC 2272; GC2272, read-out: MINIMAL INHIBITORY CONCENTRATION MIC, pre-incubated in Mouse Serum) was 1 mg/L (≈ 1.37 µM) and the MIC (E. coli GC 2272; GC2272, read-out: MINIMAL INHIBITORY CONCENTRATION MIC, pre-incubated in Water) was 16 mg/L (≈ 21.9 µM). For the same compound, the MIC (P. aeruginosa GC 2214; GC2214, read-out: MINIMAL INHIBITORY CONCENTRATION MIC, pre-incubated in Human Serum) was > 64 mg/L, the MIC (P. aeruginosa GC 2214; GC2214, read-out: MINIMAL INHIBITORY CONCENTRATION MIC, pre-incubated in Mouse Serum) was 16 mg/L (≈ 21.9 µM) and the MIC (P. aeruginosa GC 2214; GC2214, read-out: MINIMAL INHIBITORY CONCENTRATION MIC, pre-incubated in Water) was > 64 mg/L. For the same compound, the MIC (S. aureus GC 1131; GC1131, read-out: MINIMAL INHIBITORY CONCENTRATION MIC, pre-incubated in Human Serum) was 0.5 mg/L (≈ 0.685 µM), the MIC (S. aureus GC 1131; GC1131, read-out: MINIMAL INHIBITORY CONCENTRATION MIC, pre-incubated in Mouse Serum) was 0.5 mg/L (≈ 0.685 µM) and the MIC (S. aureus GC 1131; GC1131, read-out: MINIMAL INHIBITORY CONCENTRATION MIC, pre-incubated in Water) was 1 mg/L (≈ 1.37 µM). It also gave an MIC (S. aureus GC 4536; GC4536, read-out: MINIMAL INHIBITORY CONCENTRATION MIC, pre-incubated in Human Serum) of 0.5 mg/L (≈ 0.685 µM), an MIC (S. aureus GC 4536; GC4536, read-out: MINIMAL INHIBITORY CONCENTRATION MIC, pre-incubated in Mouse Serum) of 0.5 mg/L (≈ 0.685 µM) and an MIC (S. aureus GC 4536; GC4536, read-out: MINIMAL INHIBITORY CONCENTRATION MIC, pre-incubated in Water) of 1 mg/L (≈ 1.37 µM). The MIC (S. aureus GC 2216; GC2216, read-out: MINIMAL INHIBITORY CONCENTRATION MIC, pre-incubated in Human Serum) was 0.5 mg/L (≈ 0.685 µM), the MIC (S. aureus GC 2216; GC2216, read-out: MINIMAL INHIBITORY CONCENTRATION MIC, pre-incubated in Mouse Serum) was 1 mg/L (≈ 1.37 µM) and the MIC (S. aureus GC 2216; GC2216, read-out: MINIMAL INHIBITORY CONCENTRATION MIC, pre-incubated in Water) was 1 mg/L (≈ 1.37 µM). It also gave an MIC (S. epidermidis GC 4935; GC4935, read-out: MINIMAL INHIBITORY CONCENTRATION MIC, pre-incubated in Human Serum) of 1 mg/L (≈ 1.37 µM), an MIC (S. epidermidis GC 4935; GC4935, read-out: MINIMAL INHIBITORY CONCENTRATION MIC, pre-incubated in Mouse Serum) of 1 mg/L (≈ 1.37 µM) and an MIC (S. epidermidis GC 4935; GC4935, read-out: MINIMAL INHIBITORY CONCENTRATION MIC, pre-incubated in Water) of 2 mg/L (≈ 2.74 µM). It also gave an MIC (E. faecalis GC 4555; GC4555, read-out: MINIMAL INHIBITORY CONCENTRATION MIC, pre-incubated in Human Serum) of 2 mg/L (≈ 2.74 µM), an MIC (E. faecalis GC 4555; GC4555, read-out: MINIMAL INHIBITORY CONCENTRATION MIC, pre-incubated in Mouse Serum) of 1 mg/L (≈ 1.37 µM) and an MIC (E. faecalis GC 4555; GC4555, read-out: MINIMAL INHIBITORY CONCENTRATION MIC, pre-incubated in Water) of 2 mg/L (≈ 2.74 µM). It also gave an MIC (E. faecalis GC 2265; GC2265, read-out: MINIMAL INHIBITORY CONCENTRATION MIC, pre-incubated in Human Serum) of 1 mg/L (≈ 1.37 µM), an MIC (E. faecalis GC 2265; GC2265, read-out: MINIMAL INHIBITORY CONCENTRATION MIC, pre-incubated in Mouse Serum) of 0.5 mg/L (≈ 0.685 µM) and an MIC (E. faecalis GC 2265; GC2265, read-out: MINIMAL INHIBITORY CONCENTRATION MIC, pre-incubated in Water) of 4 mg/L (≈ 5.48 µM). It also gave an MIC (E. faecalis GC 2267; GC2267, read-out: MINIMAL INHIBITORY CONCENTRATION MIC, pre-incubated in Human Serum) of 1 mg/L (≈ 1.37 µM), an MIC (E. faecalis GC 2267; GC2267, read-out: MINIMAL INHIBITORY CONCENTRATION MIC, pre-incubated in Mouse Serum) of 0.5 mg/L (≈ 0.685 µM) and an MIC (E. faecalis GC 2267; GC2267, read-out: MINIMAL INHIBITORY CONCENTRATION MIC, pre-incubated in Water) of 2 mg/L (≈ 2.74 µM). The MIC (E. faecalis GC 2242; GC2242, read-out: MINIMAL INHIBITORY CONCENTRATION MIC, pre-incubated in Human Serum) was 1 mg/L (≈ 1.37 µM), the MIC (E. faecalis GC 2242; GC2242, read-out: MINIMAL INHIBITORY CONCENTRATION MIC, pre-incubated in Mouse Serum) was 1 mg/L (≈ 1.37 µM) and the MIC (E. faecalis GC 2242; GC2242, read-out: MINIMAL INHIBITORY CONCENTRATION MIC, pre-incubated in Water) was 2 mg/L (≈ 2.74 µM). For the same compound, the MIC (E. faecium GC 2243; GC2243, read-out: MINIMAL INHIBITORY CONCENTRATION MIC, pre-incubated in Human Serum) was 1 mg/L (≈ 1.37 µM), the MIC (E. faecium GC 2243; GC2243, read-out: MINIMAL INHIBITORY CONCENTRATION MIC, pre-incubated in Mouse Serum) was 0.5 mg/L (≈ 0.685 µM) and the MIC (E. faecium GC 2243; GC2243, read-out: MINIMAL INHIBITORY CONCENTRATION MIC, pre-incubated in Water) was 2 mg/L (≈ 2.74 µM). For the same compound, the MIC (S. pneumoniae* GC 4465; [1]) was 0.25 mg/L (≈ 0.343 µM), the MIC (S. pneumoniae* GC 4465; [2]) was 0.25 mg/L (≈ 0.343 µM) and the MIC (S. pneumoniae* GC 4465; [3]) was 0.5 mg/L (≈ 0.685 µM). For the same compound, the MIC (S. pneumoniae+ GC 4465; [1]) was 2 mg/L (≈ 2.74 µM), the MIC (S. pneumoniae+ GC 4465; [2]) was 2 mg/L (≈ 2.74 µM) and the MIC (S. pneumoniae+ GC 4465; [3]) was 4 mg/L (≈ 5.48 µM). For the same compound, the MIC (c. albicans GC 3066; Candida albicans, GC3066, read-out: MINIMAL INHIBITORY CONCENTRATION MIC) was > 64 mg/L, the “MINIMAL INHIBITORY CONCENTRATION MIC” value (c. albicans GC 3066; pre-incubated in Human Serum) was >64 UG/ML and the “MINIMAL INHIBITORY CONCENTRATION MIC” value (c. albicans GC 3066; pre-incubated in Mouse Serum) was >64 UG/ML. For the same compound, the MIC (E. coli; 20 h, read-out: Range of MIC, E. coli (Mouse Serum)) was 0.5 to 2 mg/L (≈ 0.685 to 2.74 µM), the MIC (E. coli; read-out: Minimum inhibitory concentration (MIC), E. coli (Human Serum)) was 4 to 16 mg/L (≈ 5.48 to 21.9 µM) and the MIC (Staph.; MRSA, read-out: Range of MIC, Staph (Mouse Serum)) was 0.25 to 1 mg/L (≈ 0.343 to 1.37 µM). It also gave an MIC (Staph.; MRSA, read-out: Range of MIC, Staph (Water)) of 0.5 to 2 mg/L (≈ 0.685 to 2.74 µM), an MIC (Staph.; read-out: Minimum inhibitory concentration (MIC), Staph (Human Serum)) of 0.12 to 1 mg/L (≈ 0.164 to 1.37 µM) and an MIC (Staph.; read-out: Minimum inhibitory concentration (MIC), Staph (Water)) of 0.5 to 2 mg/L (≈ 0.685 to 2.74 µM). It also gave an ED50 (Staph. aureus Smith; Staphylococcus aureus, in Mus musculus, iv, read-out: ED50 SIV (Staph aureus Smith)) of 0.66 mg/kg, an ED50 (Staph. aureus Smith; Staphylococcus aureus, in Mus musculus, po, read-out: ED50 SOD (Staph aureus Smith)) of 5.9 mg/kg and an ED50 (Staph. aureus Smith; Staphylococcus aureus, in Mus musculus, po, read-out: ED50 Staph Smith SOD) of 5.9 mg/kg. For the same compound, the ED50 (Staph. aureus Smith; iv, read-out: ED50 Staph Smith SIV) was 0.66 mg/kg.
